Data on 1 compound can be found in publication PMC5274652, “Antagonizing Retinoic Acid Receptors Increases Myeloid Cell Production by Cultured Human Hematopoietic Stem Cells” (Archivum Immunologiae et Therapiae Experimentalis, 2016).

Each structure is given as a SMILES string.

The subject of one assay is CD34^+vehuHSCs. To be noted: 100 nM, 2 weeks, 2 donors. As to the method:
Assays for week-five cobblestone area forming cells (CAFC), long-term culture-initiating cells (LTC-IC), and colony-forming units (CFU) were performed at the Stem Cell Laboratory at the National Blood Service Stem Cell Laboratory using standard procedures and methods, as described by other workers (de […] and Ploemacher [2001]; Denning-Kendall et al. [1996]; Nicol et al. [1996]). CFU assays were performed using Methocult^TM GF H8444 (StemCell Technologies) and in 35 mm petri dishes. The presence of CAFC was scored as the presence of 12 or more closely associated and small cells that were embedded in the MS5 cell feeder layer and blind by an experienced reader. The nature of CFUs, as to colony-forming unit-granulocyte/erythroid/megakaryocyte/monocyte (CFU-GEMM), colony-forming unit-granulocyte/macrophage (CFU-GM), burst-forming unit-erythroid (BFU-E), and colony-forming unit-erythroid (CFU-E), was scored blind at the service by a person who routinely reads colony assays and is accredited. The nature of colonies was confirmed by sampling colonies and staining cytocentrifuged preparations of cells.

The subject of a further assay is CD34^+vehuHSC. Kind of assay: Cell production and lifespan of CD34+ve huHSC-initiated cultures. It counts as cell-based, human. The source says: (§1) The cells used were CD34^+ve cells purified from the blood of normal human adult donors and post-mobilization of stem cells to the blood. Cells obtained and purified in this manner are used routinely by the National Blood Service Stem Cell Laboratory in Birmingham for bone marrow transplantation. Ethics approval for the use of adult human blood-mobilized stem cells (CD34^+vehuHSC) was from the West Midlands Research Ethics Committee. Informed consent was obtained by the regional National Blood Service Stem Cell Laboratory in Birmingham. CD34^+ve cells were purified to 99 % CD34^+ve, 97 % CD133^+ve, >99 % lineage^−ve (n = 15) using an anti-CD34 monoclonal antibody, immunomagnetic beads, and a CliniMACS magnetic separator. Purified cells were plated at 5 × 10^5 cells/ml in microtiter wells in 200 μl of either RPMI-1640 medium (R and D Systems, Abingdon, UK) or HPGM^TM hematopoietic growth medium (Lonza, UK) containing either 10 % FBS or 10 % human serum, antibiotics (100 U/ml penicillin and 100 μg/ml streptomycin) and stem cell factor (SCF), interleukin (IL)-3, and granulocyte-colony stimulating factor (G-CSF) (all from R and D Systems Abingdon, UK) as stated in the results. Cultures were fed every 2–3 days (with fresh compound), split into microtiter wells, and then expanded into 2 ml Costar wells to maintain a cell density of between 2.5 and 10 × 10^5 cells/ml. Cells were grown at 37 °C in 5 % CO2. Viable cells were enumerated by phase contrast microscopy (400× magnification).
(§2) The expression of differentiation markers at the cell surface was determined by flow cytometry. Differentiation of NB-4 and KG1 cells was measured by staining using the monoclonal antibodies CD11b-FITC and CD14-PE and appropriately labeled isotype controls (all from ImmunoTools, Friesoythe, Germany). Differentiation of human CD34^+ve cells was measured by triple-color staining using various cocktails of phycoerythrin-, fluorescein isothyocyanate-, and PerCP-monoclonal antibodies (from Becton–Dickinson, San Jose, CA, USA). The markers used to identify cell populations were as follows: CD45^+ve leukocytes; CD34^+ve/CD133^+ve HSCs; CD33^+ve/CD13^+ve immature myeloid; CD117^+ve myeloblasts and promyelocytes; CD11b^+ve/CD15^+ve mature myeloid; CD11b^+ve/CD65^+ve neutrophils; CD11b^+ve/CD14^+ve monocytes; glycophorin^+ve A erythroid cells; CD61^+ve megakaryoblasts and platelets; CD2^+ve/CD5^+ve/CD7^+ve T cells and NK cells; CD56^+ve NK cells; CD19^+ve/CD20^+ve B cells; and CD10^+ve B lymphocyte progenitors; and present on mature neutrophils and DR^+ve progenitors and present on mature monocytes. The cells were stained with 1 µl of the fluorescently labeled antibody (or the appropriate control immunoglobulin) for 1 h on ice. Next, they were washed with ice-cold phosphate-buffered saline (PBS) and suspended in 0.5 ml PBS supplemented with 0.1 % bovine serum albumin (Sigma, St Louis, MO, USA) prior to analysis on FACS Calibur flow cytometer (Becton–Dickinson, San Jose, CA, USA). The acquisition parameters were set for an isotype control. Cells were analyzed using a FACSCalibur, and data analysis was performed using the CellQuest Pro software (Becton–Dickinson, San Jose, CA, USA).

The test system of another assay is mice. To be noted: cited from earlier work.
In a further assay the test system is KG1 cells. Kind of assay: Differentiation of KG1 cells (CD11b/CD14 flow cytometry). The class given is cell-based, human. To be noted: 96 h. The protocol: (§3) NB-4 and KG1 cells were obtained from the German Resource Center for Biological Material (DSMZ GmbH, Braunschweig, Germany). The cells were grown in RPMI-1640 medium supplemented with 10 % fetal bovine serum (FBS), 100 U/ml penicillin, and 100 µg/ml streptomycin (Sigma, St Louis, MO, USA). Cells were grown at 37 °C in 5 % CO2.
as §2

For assay [1], the system named is lineage^−ve/CD133^+ve/CD34^+vehuHSC. Briefly: Ex vivo expansion of lineage-ve/CD133+ve/CD34+ve huHSC. It counts as cell-based, human.
Excerpt: as §1, with “Viable cells were enumerated by phase contrast microscopy (400× magnification).” left out
The expression of differentiation markers at the cell surface was determined by flow cytometry. Differentiation of NB-4 and KG1 cells was measured by staining using the monoclonal antibodies CD11b-FITC and CD14-PE and appropriately labeled isotype controls (all from ImmunoTools, Friesoythe, Germany). Differentiation of human CD34^+ve cells was measured by triple-color staining using various cocktails of phycoerythrin-, fluorescein isothyocyanate-, and PerCP-monoclonal antibodies (from Becton–Dickinson, San Jose, CA, USA). […] Cells were analyzed using a FACSCalibur, and data analysis was performed using the CellQuest Pro software (Becton–Dickinson, San Jose, CA, USA).

Another assay has as its system NB-4 cells. Briefly: Differentiation of NB-4 cells (CD11b/CD14 flow cytometry). It counts as cell-based, human. To be noted: 96 h. The protocol:
as §3, §2

In the case of `CCc1ccc(C2=CC(C)(C)Sc3ccc(C#Cc4ccc(C(=O)O)cc4)cc32)cc1` [AGN194310], in the assay on CD34^+vehuHSCs (control 7 %), the “BFU-E together with CFU-E as share of the total colony-forming units” value was found to be 41%. Also, the “CFU-GM as share of the total colony-forming units” value in the assay on CD34^+vehuHSCs (control 93 %) amounted to 56%. The “CFU-GEMM as share of the total colony-forming units” value with CD34^+vehuHSCs (control not detected) was found to be 3%. In addition, in the assay with CD34^+vehuHSC (10 nM, by day 20, 10 % FBS, SCF, IL-3), the “cells produced versus control cultures” value is recorded as “around fourfold more cells”. The “time for which cultures were maintained” value with CD34^+vehuHSC (10 nM, 10 % FBS, SCF, IL-3, control cultures expire by day 30) is listed as at most 55 days. The “kinetic of cell production compared with 10 nM” value in the assay with CD34^+vehuHSC (100 nM, data not shown) is listed as “almost identical kinetic”. For the same compound, the “effect on rate of myeloid cell differentiation” value with CD34^+vehuHSC (CD34+ve huHSC cultures) is given as “did not slow down myeloid cell differentiation”. The “prolonged lifespan of cultures” value in the assay with CD34^+vehuHSC (human HSCs supplemented with stem cell factor ± interleukin 3, abstract) is “up to 55 days”. For the same compound, in the assay on mice (G-CSFR knockout mice, ref Chee et al. 2013), the “expansion of granulopoiesis in knockout mice lacking the receptor for G-CSF” value is listed as “not seen”. Besides, in the assay with mice (mice, ref Walkley et al. 2002, Chee et al. 2013), the “effect on myeloid cells after administration to mice” value is “increases in myeloid progenitor cells and mature myeloid cells”. Also, the “effect on differentiation of KG1 cells” value with KG1 cells (100 nM together with 10 nM 1,25D) is on record as “no effect”; in the assay with KG1 cells (100 nM, used alone), “no effect”. The “level of expansion of lineage−ve/CD133+ve/CD34+ve huHSC” value in assay [1] (100 nM, day 30, HPGM, 10 % human serum, 100 ng/ml SCF, mean of seven donors, control ~eightfold) was ~ 18 fold. The “expansion of lineage−ve/CD133+ve/CD34+ve cells” value in assay [1] (all 15 donors, control 8–10-fold) is “around 20 fold”. In addition, the “effect on differentiation of NB-4 cells” value with NB-4 cells (100 nM with 10 nM 1,25D, compared with 1,25D alone) is on record as “did not have an appreciable effect”; in the assay on NB-4 cells (100 nM, used alone) it was “no effect”.
